Measured values as given in US6475996B1, “Use of a vector expressing DNA polymerase β as medicine” (Centre National De La Recherche Scientifique (CNRS), priority 1996, dated 2002).

Assays:
[1] = target: T1, pol β (Rattus norvegicus, UniProt P06766); experiment: DNA replication test with extracts of pol β-transfected B16 cells; assay type: biochemical; settings: extracts of B16 cells transfected with pUT-pol β
T1 construct: expressed in transfected cells; host or cells: B16 mouse melanoma cells transfected with pUT-pol β; cell extracts

[2] = target: DNA polymerase β (Homo sapiens, UniProt P06746); settings: in vitro, compared with dCMP (Copeland et al., 1992); cited from earlier work
[3] = test system: E. coli SC 18-12; experiment: Functionality check of pZHTkβ: survival of E. coli SC 18-12; assay type: cell-based; settings: Zeocine 25 μg/ml
Excerpt: The functionality of the construct was checked using E. coli bacterial strains,
1—either by transforming the strain SC 18-12 for the expression of pol β,

Nc1ccn([C@H]2CC[C@@H](COP(=O)(O)OP(=O)(O)OP(=O)(O)O)O2)c(=O)n1 [triphosphorylated ddC]
In vitro incorporation into the G-rich nucleotide substrate [1]: allowed an in vitro incorporation

Nc1ccn([C@H]2CC[C@@H](COP(=O)(O)O)O2)c(=O)n1 [ddCMP]
Efficacy of incorporation by DNA polymerase β [2]: comparable to that observed for the incorporation of the natural antagonist dCMP

Cc1c(N)nc([C@H](CC(N)=O)NC[C@H](N)C(N)=O)nc1C(=O)N[C@H](C(=O)N[C@H](C)[C@@H](O)[C@H](C)C(=O)N[C@H](C(=O)NCCC1=N[C@@H](c2nc(C(=O)NCCCCN=C(N)N)cs2)CS1)[C@@H](C)O)[C@@H](O[C@@H]1O[C@@H](CO)[C@@H](O)[C@H](O)[C@@H]1O[C@H]1O[C@H](CO)[C@@H](O)[C@H](OC(N)=O)[C@@H]1O)c1cnc[nH]1 [Zeocine]
Survival (%) ([3]; SC 18-12/pZHTkβ): 97% | Survival (%) ([3]; SC 18-12 non-transformed): 5%
